# Reference: article PMC7358406, “Molecular and Biochemical Characterization of Salt-Tolerant Trehalose-6-Phosphate Hydrolases Identified by Screening and Sequencing Salt-Tolerant Clones From the Metagenomic Library of the Gastrointestinal Tract” (Frontiers in Microbiology, 2020)
# Assays:
# [1] = system: T1, rTRE_P3 (TRE_P3), trehalose-6-phosphate hydrolase; experiment: p-nitrophenol release, A410, initial rates; format: biochemical, Staphylococcus warneri; conditions: 50 mM HEPES-NaOH pH 7.5 and 100 mM NaCl (standard assay), 30°C; pNPG 0.5-10 mM
# T1 construct: full length without signal peptide, gene 1644 bp
# [2] = system: T2, rTRE_P2 (TRE_P2), trehalose-6-phosphate hydrolase; experiment: p-nitrophenol release, A410, initial rates; format: biochemical, Staphylococcus warneri; conditions: 50 mM HEPES-NaOH pH 7.5 and 100 mM NaCl (standard assay), 30°C; pNPG 0.5-10 mM
# T2 construct: full length without signal peptide, gene 1638 bp
structure (smiles),measurement,setting,value
O=[N+]([O-])c1ccc(O[C@H]2O[C@H](CO)[C@@H](O)[C@H](O)[C@H]2O)cc1 [p-nitrophenyl-α-D-glucopyranoside],Km,[1],12.5 mM
same,Km,[2],15.6 mM
